{"source": "patent US20020076747A1", "about": "“Method for expanding embryonic stem cells in serum-free culture” (priority 1997, published 2002)", "key": {"[1]": {"test_system": "D3 ES cells", "test": "Media formulation evaluation assay: ES cell colony morphology, alkaline phosphatase staining and plating efficiency", "type": "cell-based, mouse", "details": "for general plating efficiency and number of undifferentiated ES colonies with or without the component: component added to serum-free formulation (15% in DMEM): 15 μg/L ferric citrate, 0.3 μg/L glycl-histidyl-lysine, 300 μg/L ethanolamine", "procedure": "ES D3 ES cells were used (Doetschman, T. C. et al., J. Embryol. Exp. Morph. 87:27-45 (1985)). Unless otherwise specified, D3 cells at passage 15 were used. Trypsin-EDTA (0.25%, 1 mM) was used to remove cells from plates after rinsing the cell layer with phosphate buffered saline (PBS). Cells were cultured in a humidified 37° C., 10% CO2 incubator.\nThe protocol for a media formulation evaluation assay was as follows. The source of ES cells for the experiments was a sub-confluent dish of ES cells maintained on a feeder layer in ES cell medium with LIF. Feeder layers for experimental conditions were established in 6 well plates (NUNC) by seeding 3-5×10^4 feeder cell/cm^2 and allowing the cells to attach. ES cells were trypsinized to form a cell suspension. Trypsin activity was quenched with serum-supplemented medium, and cells were pelleted by centrifugation at 500× g. The medium was removed and the ES cells were resuspended in DMEM containing 2 mM L-glutamine, 50 U/mL penicillin, 50 ug/mL streptomycin, 100 uM NEAA, and 100 uM 2-mercaptoethanol (final concentrations).\nES cells were then mixed with respective test media (described infra) at a concentration of […]. Feeder cell media was then removed from the feeder plates, and the feeder layers were washed once with 2 mL of DMEM (that was not supplemented with serum or any other additives). 2.5 mL of test medium and ES cells (225/well) were added to each well of feeder cells. Test conditions were assayed in triplicate (3 wells/test condition). The cells were incubated for 7 days while observations were made regarding ES cell growth parameters. Incubation conditions were 37° C., 10% CO2 in air, and humidified atmosphere.\nAt the end of the 7 day culture period, observations were made and then ES cells were harvested, fixed and assayed for the presence of alkaline phosphatase by using a histochemical assay (Sigma diagnostic kit 86-R, Sigma, St. Louis, Mo.). Cells were fixed and assayed according to the manufacturer's directions. In this assay, cells which express alkaline phosphatase stain dark pink or red. ES cell colonies were rated in terms of morphology and strength of alkaline phosphatase staining according to the following parameters. Class I colonies are round, stain dark pink, and have the desired, undifferentiated colony morphology characterized by a well-defined colony border. Class II colonies are those that have begun to differentiate, are stained at least 60% pink, and have a more flattened appearance, with a poorly defined border. […] Plating efficiency was determined by dividing the total number of colonies obtained by the input number of ES cells (225/well)."}, "[2]": {"test_system": "feeder cells", "test": "Feeder layer morphology in ES cell cultures", "type": "cell-based", "details": "AAP 50 mg/L, independent of LIF", "from_the_text": "One aspect of the supplement that was sub-optimal related to the morphology of the feeder layer in ES cell cultures maintained in the same culture vessel for more than three days. Generally, ES cells are passaged every two to three days. Typically, during selection of antibiotic-resistant ES cells, cultures are maintained without passaging for ten or more days. […] The detached cells were seen floating in the growth medium.\nIn order to improve the formulation, the addition of L-ascorbic acid-2-phosphate to the formulation was evaluated. In an evaluation assay (as in Example 1), the medium was supplemented with the serum-free supplement (to a fmal concentration of 15%), either with or without L-ascorbic acid-2-phosphate (50 mg/L final concentration), and 10 ng/mL LIF (final concentration).\nThe numbers within parentheses indicate what percentage of total ES cell colonies that the colonies with the indicated degree of differentiation represented. In Table 4, “good” feeder cell morphology reflects a more fibroblast-like character and smooth borders, rather than a spindly, ragged-looking character."}}}
{"compound": "NCCO", "note": "[ethanolamine]", "values": [{"measurement": "general plating efficiency and number of undifferentiated ES colonies with or without the component", "setting": "[1]", "value": "no different"}]}
{"compound": "O=C1O[C@H]([C@@H](O)CO)C(O)=C1OP(=O)(O)O", "note": "[L-ascorbic acid-2-phosphate]", "values": [{"measurement": "effect on plating efficiency", "setting": "[1]; factor alone", "value": "little effect"}, {"measurement": "colony size", "setting": "[1]; in the absence of LIF", "value": "much improved"}, {"measurement": "percent of class I colonies", "setting": "[1]; in the absence of LIF", "value": "increased"}, {"measurement": "percent of class III colonies", "setting": "[1]; in the absence of LIF", "value": "decreased"}, {"measurement": "average colony size (an indication of growth rate)", "setting": "[1]; with LIF in the culture media", "value": "increase"}, {"measurement": "effect on the morphology class of colonies obtained", "setting": "[1]; with LIF in the culture media", "value": "virtually no effect"}, {"measurement": "appearance of the feeder layer", "setting": "[2]", "value": "improved"}]}
{"compound": "glycl-histidyl-lysine", "values": [{"measurement": "general plating efficiency and number of undifferentiated ES colonies with or without the component", "setting": "[1]", "value": "no different"}]}
{"compound": "ferric citrate", "values": [{"measurement": "general plating efficiency and number of undifferentiated ES colonies with or without the component", "setting": "[1]", "value": "no different"}]}
